According to patent US9957264B2 (Merck Sharp & Dohme Corp., priority 2013, dated 2018):

Legend:
[1] = biological target: JAK2 (recombinant purified GST-tagged catalytic domain) (Homo sapiens (Human), UniProt O60674); assay: Jak Biochemical HTRF Assay (JAK2); conditions: [ATP] 8.5 μM
[2] = biological target: JAK1 (recombinant purified GST-tagged catalytic domain) (Homo sapiens (Human), UniProt P23458); assay: Jak Biochemical HTRF Assay (JAK1); conditions: [ATP] 31.8 μM
Procedure, shortened: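 Compounds in DMSO were pre-equilibrated with enzyme and biotinylated peptide, then ATP was added and the reaction proceeded 120 min at room temperature. EDTA-based stop buffer with detection reagents was added, and after 60 min the time-resolved FRET ratio was read. IC50s came from 4-parameter dose–response fits.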

JAK2 (recombinant purified GST-tagged catalytic domain), sequence (O60674 849-1124): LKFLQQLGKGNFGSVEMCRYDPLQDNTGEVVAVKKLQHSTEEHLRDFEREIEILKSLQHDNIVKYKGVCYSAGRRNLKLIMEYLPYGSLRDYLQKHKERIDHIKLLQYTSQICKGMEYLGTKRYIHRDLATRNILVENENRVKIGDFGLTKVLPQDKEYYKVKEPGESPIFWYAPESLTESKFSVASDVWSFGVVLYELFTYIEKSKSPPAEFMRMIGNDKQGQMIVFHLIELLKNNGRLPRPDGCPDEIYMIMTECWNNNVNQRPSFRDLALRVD
JAK1 (recombinant purified GST-tagged catalytic domain), sequence (P23458 875-1153): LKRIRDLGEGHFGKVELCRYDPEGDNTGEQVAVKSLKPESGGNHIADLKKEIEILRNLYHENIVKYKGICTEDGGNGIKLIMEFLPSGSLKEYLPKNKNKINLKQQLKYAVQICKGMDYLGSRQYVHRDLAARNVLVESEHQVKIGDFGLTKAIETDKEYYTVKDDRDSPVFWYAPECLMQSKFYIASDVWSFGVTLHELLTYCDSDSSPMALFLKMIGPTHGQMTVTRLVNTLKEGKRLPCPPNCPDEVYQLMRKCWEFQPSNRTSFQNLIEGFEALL

IC50 [1] [nM] | IC50 [2] [nM] | Compound
0.63 | 0.21 | CN(C)S(=O)(=O)c1ccc(Nc2nn(C3(CC#N)CCN(Cc4ccc(F)cc4)CC3)c3cc[nH]c(=O)c23)cc1 [Example 8-7, 4-({1-[4-(cyanomethyl)-1-(4-fluorobenzyl)piperidin-4-yl]-4-oxo-4,5-dihydro-1H-pyrazolo[4,3-c]pyridin-3-yl}amino)-N,N-dimethylbenzenesulfonamide]
84.6 | 4.14 | N#CCC1(n2nc(Nc3ccc(C(F)(F)F)cc3)c3c(=O)[nH]ccc32)CCC(O)CC1 (stereo not drawn) [Example 18-5, (cis and trans) 2-(4-hydroxy-1-(4-oxo-3-((4-(trifluoromethyl)phenyl)amino)-4,5-dihydro-1H-pyrazolo[4,3-c]pyridin-1-yl)cyclohexyl)acetonitrile]
0.06 | 0.04 | CC(C)OC(=O)[C@@H]1CC[C@@](CC#N)(n2nc(Nc3ccc4c(c3)CN(C(C)(C)C)S4(=O)=O)c3c(=O)[nH]ccc32)CO1 [Example 19-3, (2S,5S)-isopropyl 5-(3-((2-(tert-butyl)-1,1-dioxido-2,3-dihydrobenzo[d]isothiazol-5-yl)amino)-4-oxo-4,5-dihydro-1H-pyrazolo[4,3-c]pyridin-1-yl)-5-(cyanomethyl)tetrahydro-2H-pyran-2-carboxylate]
0.75 | 0.31 | CN(C)S(=O)(=O)c1ccc(Nc2nn(C3(CC#N)CCN(Cc4ccc(-c5ccon5)cc4)CC3)c3cc[nH]c(=O)c23)cc1 [Example 8-13, 4-({1-[4-(cyanomethyl)-1-(4-isoxazol-3-ylbenzyl)piperidin-4-yl]-4-oxo-4,5-dihydro-1H-pyrazolo[4,3-c]pyridin-3-yl}amino)-N,N-dimethylbenzenesulfonamide]

Continued, molecule first:

Compound | IC50 [1] [nM] | IC50 [2] [nM]
CC(C)(C)OC(=O)[C@@H]1CC[C@@](CC#N)(n2nc(Nc3ccc4nc(C(N)=O)ccc4c3)c3c(=O)[nH]ccc32)CO1 [Example 5-223, (2S,5S)-tert-butyl 5-(3-((2-carbamoylquinolin-6-yl)amino)-4-oxo-4,5-dihydro-1H-pyrazolo[4,3-c]pyridin-1-yl)-5-(cyanomethyl)tetrahydro-2H-pyran-2-carboxylate] | 0.82 | 0.07
CC(C)(C)OC(=O)N1CCC(CC#N)(n2nc(Nc3ccc(S(=O)(=O)NC4CCCCC4)cc3)c3c(=O)[nH]ccc32)CC1 [Example 5-292, tert-butyl 4-(cyanomethyl)-4-(3-((4-(N-cyclohexylsulfamoyl)phenyl)amino)-4-oxo-4,5-dihydro-1H-pyrazolo[4,3-c]pyridin-1-yl)piperidine-1-carboxylate] | 1.92 | 1.2
N#CC[C@@]1(n2nc(Nc3ccc(S(=O)(=O)N4CCOCC4)cc3)c3c(=O)[nH]ccc32)CCCOC1 [Example 5-204, [(3S)-3-(3-{[4-(morpholin-4-ylsulfonyl)phenyl]amino}-4-oxo-4,5-dihydro-1H-pyrazolo[4,3-c]pyridin-1-yl)tetrahydro-2H-pyran-3-yl]acetonitrile] | 0.48 | 0.29
CNS(=O)(=O)c1ccc(Nc2nn([C@]3(CC#N)CC[C@@H](C(=O)OC(C)(C)C)OC3)c3cc[nH]c(=O)c23)cc1 [Example 5-94, (2S,5S)-tert-butyl 5-(cyanomethyl)-5-(3-((4-(N-methylsulfamoyl)phenyl)amino)-4-oxo-4,5-dihydro-1H-pyrazolo[4,3-c]pyridin-1-yl)tetrahydro-2H-pyran-2-carboxylate] | 0.18 | 0.04
CC(C)(C)OC(=O)[C@@H]1CC[C@@](CC#N)(n2nc(Nc3ccc(C4(C(F)(F)F)CCNC4)cc3)c3c(=O)[nH]ccc32)CO1 (single isomer, unassigned) [Example 5-284, (2S,5S)-tert-butyl 5-(cyanomethyl)-5-(4-oxo-3-((4-((R or S)-3-(trifluoromethyl)pyrrolidin-3-yl)phenyl)amino)-4,5-dihydro-1H-pyrazolo[4,3-c]pyridin-1-yl)tetrahydro-2H-pyran-2-carboxylate] | 0.24 | 0.15
CC(C)(C)OC(=O)N1CCC(CC#N)(n2nc(Nc3cc(Cn4ccnn4)cc(Cn4nccn4)c3)c3c(=O)[nH]ccc32)CC1 [Example 5-64, tert-butyl 4-(3-(3-((1H-1,2,3-triazol-1-yl)methyl)-5-((2H-1,2,3-triazol-2-yl)methyl)phenylamino)-4-oxo-4,5-dihydropyrazolo [4,3-c]pyridin-1-yl)-4-(cyanomethyl)piperidine-1-carboxylate] | 0.46 | 0.57
COC(C)(c1ccc(Nc2nn([C@]3(CC#N)CC[C@@H](C(=O)OC(C)(C)C)OC3)c3cc[nH]c(=O)c23)cc1)C(F)(F)F (single isomer, unassigned) [Example 5-172, (2S,5S)-tert-butyl 5-(cyanomethyl)-5-(4-oxo-3-((4-((S or R)-1,1,1-trifluoro-2-methoxypropan-2-yl)phenyl)amino)-4,5-dihydro-1H-pyrazolo[4,3-c]pyridin-1-yl)tetrahydro-2H-pyran-2-carboxylate] | 1.14 | 0.75
CC(C)(C)OC(=O)N1CCC(CC#N)(n2nc(Nc3cc(Cn4ccnn4)cc(Cn4ccnn4)c3)c3c(=O)[nH]ccc32)CC1 [Example 5-62, tert-butyl 4-(3-(3,5-bis((1H-1,2,3-triazol-1-yl)methyl)phenylamino)-4-oxo-4,5-dihydropyrazolo[4,3-c]pyridin-1-yl)-4-(cyanomethyl)piperidine-1-carboxylate] | 0.32 | 0.31
Cc1cc(Nc2nn([C@]3(CC#N)CCCOC3)c3cc[nH]c(=O)c23)ccc1C(=O)N1CCOCC1 [Example 5-118, (S)-2-(3-(3-((3-methyl-4-(morpholine-4-carbonyl)phenyl)amino)-4-oxo-4,5-dihydro-1H-pyrazolo[4,3-c]pyridin-1-yl)tetrahydro-2H-pyran-3-yl)acetonitrile] | 0.76 | 0.34
CC(C)(C)OC(=O)N1CCC(CC#N)(n2nc(Nc3ccc4c(c3)CNC4)c3c(=O)[nH]ccc32)CC1 [Example 5-66, tert-butyl 4-(cyanomethyl)-4-(3-(isoindolin-5-ylamino)-4-oxo-4,5-dihydropyrazolo[4,3-c]pyridin-1-yl)piperidine-1-carboxylate] | 0.43 | 0.26
CC(c1ccc(Nc2nn([C@]3(CC#N)CC[C@@H](C(=O)OC(C)(C)C)OC3)c3cc[nH]c(=O)c23)cc1)N1CCCC1 (single isomer, unassigned) [Example 5-211, (2S,5S)-tert-butyl 5-(cyanomethyl)-5-(4-oxo-3-((4-((S or R)-1-(pyrrolidin-1-yl)ethyl)phenyl)amino)-4,5-dihydro-1H-pyrazolo [4,3-c]pyridin-1-yl) tetrahydro-2H-pyran-2-carboxylate] | 0.12 | 0.19
CC(C)NC(C)(C)c1ccc(Nc2nn([C@@]3(CC#N)CCCC[C@H]3F)c3cc[nH]c(=O)c23)cc1 [Example 5-175, [(1R,2R)-2-fluoro-1-{3-[(4-{1-methyl-1-[(1-methylethyl)amino]ethyl}phenyl)amino]-4-oxo-4,5-dihydro-1H-pyrazolo[4,3-c]pyridin-1-yl}cyclohexyl]acetonitrile] | 0.06 | 0.09
